Results as given in patent US10189845B2, “4,6-substituted-pyrazolo[1,5-a]pyrazines as janus kinase inhibitors” (ARRAY BIOPHARMA INC., priority 2014, dated 2019).
Structures can show the parent of a compound that is named as a salt. Where two headings read alike, the source gives them in different places.

Experiments:
Type in all cases: biochemical
Human Tyk2 kinase domain = Human Tyk2 kinase domain (Homo sapiens (Human), UniProt P29597); assay: Tyk2 Inhibition Assay (Example A, Omnia kinase fluorescence peptide substrate assay); conditions: TYK2 Enzyme IC50 1 mM ATP, averaged IC50 ranges
Method in brief: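 IC50 values come from a 4-parameter logistic fit of percent-of-control data, with compounds at 2% final DMSO. Reactions held 1 nM His-tag-cleaved Tyk2 (aa 886–1187), 8 μM Omnia Y12 peptide and 1 mM ATP in pH 7.4 HEPES buffer with 10 mM MgCl2, Triton X-100 and DTT. Sox fluorescence (360/485 nm) was monitored kinetically over 45 min.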

JAK1 = JAK1 (Homo sapiens (Human), UniProt P23458); assay: JAK1 Inhibition Assay (Example B, Omnia kinase fluorescence peptide substrate assay)
Method in brief: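 Kinetic fluorescence read (360 nm excitation, 485 nm emission, every 50 s over 45 min) of Omnia Y12 peptide (8 μM) phosphorylation by 12.5 nM human JAK1 at 1 mM ATP. Buffer: HEPES pH 7.4, MgCl2, Triton X-100, DTT; 2% DMSO. IC50 = concentration giving 50 POC on logistic curve.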

JAK2 = JAK2 (Homo sapiens (Human), UniProt O60674); assay: JAK2 Inhibition Assay (Example C, Omnia kinase fluorescence peptide substrate assay); conditions: JAK2 Enzyme IC50 1 mM ATP, averaged IC50 ranges
Method in brief: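 Kinetic fluorescence read of Omnia Y7 peptide (10 μM) phosphorylation, ex 360/em 485 nm every 50 s over 45 min, by 4 nM JAK2 at 1 mM ATP. Buffer 25 mM HEPES pH 7.4, 10 mM MgCl2, 0.01% Triton X-100, 1 mM DTT; final DMSO 2%. Percent-of-control values fitted by 4-parameter logistic for IC50.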

JAK3 = JAK3 (Homo sapiens (Human), UniProt P52333); assay: JAK3 Inhibition Assay (Example D, Omnia kinase fluorescence peptide substrate assay)
Method in brief: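 Omnia Sox-peptide kinetic read (ex 360 nm, em 485 nm, every 50 s over 45 min) tracked phosphorylation of 10 μM Y7 peptide by 2 nM recombinant JAK3 at 1 mM ATP. Buffer: 25 mM HEPES pH 7.4, 10 mM MgCl2, 0.01% Triton X-100, 1 mM DTT, with 2% DMSO final.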

[1] = JAK1 Enzyme IC50 1 mM ATP, 1 mM ATP, averaged IC50 ranges

JAK3, sequence (P52333 whole entry): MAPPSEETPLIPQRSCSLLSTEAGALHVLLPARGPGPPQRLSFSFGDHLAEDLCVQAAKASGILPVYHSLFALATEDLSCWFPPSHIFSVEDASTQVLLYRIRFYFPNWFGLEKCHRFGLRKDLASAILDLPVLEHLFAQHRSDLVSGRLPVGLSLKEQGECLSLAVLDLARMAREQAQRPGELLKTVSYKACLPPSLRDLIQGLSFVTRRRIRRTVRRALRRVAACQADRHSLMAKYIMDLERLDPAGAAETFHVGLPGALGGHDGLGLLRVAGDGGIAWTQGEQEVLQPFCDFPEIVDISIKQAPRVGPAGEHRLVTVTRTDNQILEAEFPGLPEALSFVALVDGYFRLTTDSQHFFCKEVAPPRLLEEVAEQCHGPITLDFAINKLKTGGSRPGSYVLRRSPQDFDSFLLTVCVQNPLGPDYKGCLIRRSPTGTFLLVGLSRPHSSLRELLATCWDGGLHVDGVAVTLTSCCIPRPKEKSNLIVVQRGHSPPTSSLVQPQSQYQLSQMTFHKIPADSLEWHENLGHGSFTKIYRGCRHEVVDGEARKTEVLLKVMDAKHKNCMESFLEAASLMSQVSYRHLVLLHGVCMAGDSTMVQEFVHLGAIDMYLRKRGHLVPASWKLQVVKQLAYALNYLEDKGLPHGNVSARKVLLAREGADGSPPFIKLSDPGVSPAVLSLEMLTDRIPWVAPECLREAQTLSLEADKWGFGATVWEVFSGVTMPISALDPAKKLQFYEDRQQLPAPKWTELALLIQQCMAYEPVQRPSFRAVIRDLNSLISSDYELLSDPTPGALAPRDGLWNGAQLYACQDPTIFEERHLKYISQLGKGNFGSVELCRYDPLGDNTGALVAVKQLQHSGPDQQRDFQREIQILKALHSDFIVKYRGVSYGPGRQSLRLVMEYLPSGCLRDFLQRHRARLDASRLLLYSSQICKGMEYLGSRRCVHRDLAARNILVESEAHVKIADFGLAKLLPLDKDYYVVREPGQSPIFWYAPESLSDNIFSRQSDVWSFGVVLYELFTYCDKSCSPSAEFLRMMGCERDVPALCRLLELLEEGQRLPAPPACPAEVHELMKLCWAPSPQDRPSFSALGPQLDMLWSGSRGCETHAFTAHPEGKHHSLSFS
JAK1, sequence (P23458 whole entry): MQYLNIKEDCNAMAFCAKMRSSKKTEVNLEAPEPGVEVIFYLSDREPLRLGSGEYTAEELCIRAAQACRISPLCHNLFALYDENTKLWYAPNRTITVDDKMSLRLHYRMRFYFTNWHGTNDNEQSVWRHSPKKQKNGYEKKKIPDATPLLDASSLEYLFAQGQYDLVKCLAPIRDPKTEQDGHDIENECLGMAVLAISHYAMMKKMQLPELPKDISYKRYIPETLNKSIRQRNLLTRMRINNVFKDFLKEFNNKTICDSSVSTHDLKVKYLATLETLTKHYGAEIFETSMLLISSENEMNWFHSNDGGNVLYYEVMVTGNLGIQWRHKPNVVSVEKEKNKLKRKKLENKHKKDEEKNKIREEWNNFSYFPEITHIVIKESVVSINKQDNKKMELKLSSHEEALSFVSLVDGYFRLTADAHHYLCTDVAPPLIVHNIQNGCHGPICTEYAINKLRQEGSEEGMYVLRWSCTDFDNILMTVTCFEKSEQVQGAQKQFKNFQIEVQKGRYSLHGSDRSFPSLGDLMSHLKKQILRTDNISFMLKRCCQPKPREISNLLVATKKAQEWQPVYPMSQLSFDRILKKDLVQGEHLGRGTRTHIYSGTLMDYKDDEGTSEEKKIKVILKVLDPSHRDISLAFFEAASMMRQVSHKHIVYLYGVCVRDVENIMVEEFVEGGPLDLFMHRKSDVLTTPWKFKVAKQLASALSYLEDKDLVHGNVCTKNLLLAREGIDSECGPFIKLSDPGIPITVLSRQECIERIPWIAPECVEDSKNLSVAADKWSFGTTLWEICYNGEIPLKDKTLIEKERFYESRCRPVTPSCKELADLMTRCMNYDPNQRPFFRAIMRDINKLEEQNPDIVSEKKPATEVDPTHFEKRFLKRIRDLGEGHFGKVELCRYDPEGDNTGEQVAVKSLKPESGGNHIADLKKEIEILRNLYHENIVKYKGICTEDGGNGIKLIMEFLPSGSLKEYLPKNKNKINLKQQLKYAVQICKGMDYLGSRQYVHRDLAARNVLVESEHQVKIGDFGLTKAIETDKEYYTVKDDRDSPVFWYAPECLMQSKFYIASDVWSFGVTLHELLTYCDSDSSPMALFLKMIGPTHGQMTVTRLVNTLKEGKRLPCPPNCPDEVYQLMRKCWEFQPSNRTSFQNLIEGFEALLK
JAK2, sequence (O60674 whole entry): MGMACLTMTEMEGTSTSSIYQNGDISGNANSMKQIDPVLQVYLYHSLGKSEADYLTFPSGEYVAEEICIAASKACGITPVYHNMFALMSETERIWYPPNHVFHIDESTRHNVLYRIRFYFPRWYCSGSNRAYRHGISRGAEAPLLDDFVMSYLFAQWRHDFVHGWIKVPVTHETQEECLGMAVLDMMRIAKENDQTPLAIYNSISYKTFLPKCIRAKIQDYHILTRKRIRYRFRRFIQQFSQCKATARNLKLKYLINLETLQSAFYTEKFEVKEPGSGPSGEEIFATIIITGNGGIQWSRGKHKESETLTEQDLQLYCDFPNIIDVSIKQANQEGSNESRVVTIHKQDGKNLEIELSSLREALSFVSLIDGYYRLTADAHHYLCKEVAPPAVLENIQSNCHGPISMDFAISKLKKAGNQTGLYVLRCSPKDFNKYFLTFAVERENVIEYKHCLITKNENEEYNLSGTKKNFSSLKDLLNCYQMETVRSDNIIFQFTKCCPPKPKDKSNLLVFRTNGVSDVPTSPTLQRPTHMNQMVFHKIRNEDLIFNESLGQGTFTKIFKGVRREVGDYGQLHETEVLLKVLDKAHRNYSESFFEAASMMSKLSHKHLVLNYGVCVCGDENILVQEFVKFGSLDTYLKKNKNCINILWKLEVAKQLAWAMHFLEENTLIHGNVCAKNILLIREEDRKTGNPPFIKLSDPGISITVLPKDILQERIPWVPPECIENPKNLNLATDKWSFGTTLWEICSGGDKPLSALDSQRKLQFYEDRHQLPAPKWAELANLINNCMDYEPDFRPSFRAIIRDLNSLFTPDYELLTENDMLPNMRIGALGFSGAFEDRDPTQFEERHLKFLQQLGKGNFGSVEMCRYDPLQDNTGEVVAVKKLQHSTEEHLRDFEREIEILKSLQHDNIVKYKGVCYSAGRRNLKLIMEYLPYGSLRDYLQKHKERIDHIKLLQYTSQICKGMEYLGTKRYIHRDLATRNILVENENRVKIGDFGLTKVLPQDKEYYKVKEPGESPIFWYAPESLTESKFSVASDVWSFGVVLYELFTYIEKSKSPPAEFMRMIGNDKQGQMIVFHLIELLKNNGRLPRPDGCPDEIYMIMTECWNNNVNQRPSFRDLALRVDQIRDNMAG
Human Tyk2 kinase domain, sequence (P29597 886-1187): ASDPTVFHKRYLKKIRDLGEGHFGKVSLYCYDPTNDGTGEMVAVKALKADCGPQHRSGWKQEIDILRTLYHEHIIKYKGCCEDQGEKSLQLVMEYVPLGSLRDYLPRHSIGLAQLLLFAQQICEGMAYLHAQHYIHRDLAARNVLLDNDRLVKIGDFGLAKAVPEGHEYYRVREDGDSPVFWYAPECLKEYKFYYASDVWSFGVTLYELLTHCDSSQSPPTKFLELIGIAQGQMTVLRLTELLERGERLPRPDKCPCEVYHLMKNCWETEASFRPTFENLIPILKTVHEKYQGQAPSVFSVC

| SMILES | IC50 (Human Tyk2 kinase domain) | IC50 (JAK1; [1]) | IC50 (JAK2) | IC50 (JAK3) | IC50 (JAK1) |
| --- | --- | --- | --- | --- | --- |
| CCC(CC)n1cc(-c2nc(-c3cnn(C4CN(C(=O)CN5CCCC5)C4)c3)cn3nccc23)cn1 [Example 181, 1-(3-(4-(4-(1-(pentan-3-yl)-1H-pyrazol-4-yl)pyrazolo[1,5-a]pyrazin-6-yl)-1H-pyrazol-1-yl)azetidin-1-yl)-2-(pyrrolidin-1-yl)ethanone] | 10 to 100 nM | 100 to 1000 nM | 10 to 100 nM | 1000 to 10000 nM | – |
| CCC(CC)n1cc(-c2nc(-c3cnn(C4CN(C(=O)C(=O)N(C)C)C4)c3)cn3nccc23)cn1 [Example 182, N,N-dimethyl-2-oxo-2-(3-(4-(4-(1-(pentan-3-yl)-1H-pyrazol-4-yl)pyrazolo[1,5-a]pyrazin-6-yl)-1H-pyrazol-1-yl)azetidin-1-yl)acetamide] | 10 to 100 nM | – | 10 to 100 nM | 1000 to 10000 nM | 100 to 1000 nM |
| CCC(CC)n1cc(-c2nc(-c3cnn(C[C@H](N)C(C)(C)O)c3)cn3nccc23)cn1 [Example 183, (S)-3-amino-2-methyl-4-(4-(4-(1-(pentan-3-yl)-1H-pyrazol-4-yl)pyrazolo[1,5-a]pyrazin-6-yl)-1H-pyrazol-1-yl)butan-2-ol] | 10 to 100 nM | – | 10 to 100 nM | 1000 to 10000 nM | 1000 to 10000 nM |
| CCC(CC)n1cc(-c2nc(-c3cnn(CC4(O)CCNCC4)c3)cn3nccc23)cn1 [Example 184, 4-((4-(4-(1-(pentan-3-yl)-1H-pyrazol-4-yl)pyrazolo[1,5-a]pyrazin-6-yl)-1H-pyrazol-1-yl)methyl)piperidin-4-ol] | 100 to 1000 nM | 1000 to 10000 nM | 100 to 1000 nM | 1000 to 10000 nM | – |
| CCC(CC)n1cc(-c2nc(-c3cnn(CC4(O)CCN(C(C)=O)CC4)c3)cn3nccc23)cn1 [Example 185, 1-(4-hydroxy-4-((4-(4-(1-(pentan-3-yl)-1H-pyrazol-4-yl)pyrazolo[1,5-a]pyrazin-6-yl)-1H-pyrazol-1-yl)methyl)piperidin-1-yl)ethanone] | 100 to 1000 nM | – | 100 to 1000 nM | 1000 to 10000 nM | 100 to 1000 nM |
| CCC(CC)n1cc(-c2nc(-c3cnn(C4CN(C(=O)CN)C4)c3)cn3nccc23)cn1 [Example 186, 2-amino-1-(3-(4-(4-(1-(pentan-3-yl)-1H-pyrazol-4-yl)pyrazolo[1,5-a]pyrazin-6-yl)-1H-pyrazol-1-yl)azetidin-1-yl)ethanone] | 10 to 100 nM | – | 10 to 100 nM | 1000 to 10000 nM | 1000 to 10000 nM |
| CCC(CC)n1cc(-c2nc(-c3cnn(C4CN(C(=O)CNC)C4)c3)cn3nccc23)cn1 [Example 187, 2-(methylamino)-1-(3-(4-(4-(1-(pentan-3-yl)-1H-pyrazol-4-yl)pyrazolo[1,5-a]pyrazin-6-yl)-1H-pyrazol-1-yl)azetidin-1-yl)ethanone bis(2,2,2-trifluoroacetate)] | 10 to 100 nM | – | 10 to 100 nM | 1000 to 10000 nM | 100 to 1000 nM |
| CCC(CC)n1cc(-c2nc(-c3cnn([C@@H]4CCNC[C@H]4O)c3)cn3nccc23)cn1 [Example 188, (3R,4R)-4-(4-(4-(1-(pentan-3-yl)-1H-pyrazol-4-yl)pyrazolo[1,5-a]pyrazin-6-yl)-1H-pyrazol-1-yl)piperidin-3-ol] | 10 to 100 nM | – | 10 to 100 nM | 1000 to 10000 nM | 1000 to 10000 nM |
| CCC(CC)n1cc(-c2nc(-c3cnn([C@@H]4CCC[C@@H]4O)c3)cn3nccc23)cn1 [Example 189, (1S,2R)-2-(4-(4-(1-(pentan-3-yl)-1H-pyrazol-4-yl)pyrazolo[1,5-a]pyrazin-6-yl)-1H-pyrazol-1-yl)cyclopentanol] | 10 to 100 nM | 1000 to 10000 nM | 10 to 100 nM | 1000 to 10000 nM | – |
| CCC(CC)n1cc(-c2nc(-c3cnn(CC(C)(C)CO)c3)cn3nccc23)cn1 [Example 191, 2,2-dimethyl-3-(4-(4-(1-(pentan-3-yl)-1H-pyrazol-4-yl)pyrazolo[1,5-a]pyrazin-6-yl)-1H-pyrazol-1-yl)propan-1-ol] | 10 to 100 nM | 10 to 100 nM | 10 to 100 nM | 1000 to 10000 nM | – |
| CCC(CC)n1cc(-c2nc(-c3cnn(CC4(CO)CC4)c3)cn3nccc23)cn1 [Example 192, (1-((4-(4-(1-(pentan-3-yl)-1H-pyrazol-4-yl)pyrazolo[1,5-a]pyrazin-6-yl)-1H-pyrazol-1-yl)methyl)cyclopropyl)methanol] | 10 to 100 nM | 10 to 100 nM | 10 to 100 nM | 1000 to 10000 nM | – |
| CCC(n1cc(-c2nc(-c3cnn(C[C@@H](O)CO)c3)cn3nccc23)cn1)C(F)(F)F (stereo partly drawn) [Example 193, (2R)-3-(4-(4-(1-(1,1,1-trifluorobutan-2-yl)-1H-pyrazol-4-yl)pyrazol[1,5-a]pyrazin-6-yl)-1H-pyrazol-1-yl)propane-1,2-diol] | 100 to 1000 nM | 1000 to 10000 nM | 100 to 1000 nM | 1000 to 10000 nM | – |
| C[C@H](CC(F)(F)F)n1cc(-c2nc(-c3cnn(C[C@@H](O)CO)c3)cn3nccc23)cn1 [Example 194, (R)-3-(4-(4-(1-((R)-4,4,4-trifluorobutan-2-yl)-1H-pyrazol-4-yl)pyrazolo[1,5-a]pyrazin-6-yl)-1H-pyrazol-1-yl)propane-1,2-diol hydrochloride] | 100 to 1000 nM | 1000 to 10000 nM | 100 to 1000 nM | 1000 to 10000 nM | – |
| C[C@@H](CC(F)(F)F)n1cc(-c2nc(-c3cnn(C[C@@H](O)CO)c3)cn3nccc23)cn1 [Example 195, (R)-3-(4-(4-(1-((S)-4,4,4-trifluorobutan-2-yl)-1H-pyrazol-4-yl)pyrazolo[1,5-a]pyrazin-6-yl)-1H-pyrazol-1-yl)propane-1,2-diol hydrochloride] | 100 to 1000 nM | 1000 to 10000 nM | 100 to 1000 nM | 1000 to 10000 nM | – |
| CC[C@H](n1cc(-c2nc(-c3cnn(C[C@@H](O)CO)c3)cn3nccc23)cn1)C(C)(F)F [Example 198, (R)-3-(4-(4-(1-((S)-2,2-difluoropentan-3-yl)-1H-pyrazol-4-yl)pyrazolo[1,5-a]pyrazin-6-yl)-1H-pyrazol-1-yl)propane-1,2-diol] | 100 to 1000 nM | 1000 to 10000 nM | 100 to 1000 nM | 1000 to 10000 nM | – |
| CC[C@@H](CC1CC1)n1cc(-c2nc(-c3cnn(C[C@@H](O)CO)c3)cn3nccc23)cn1 [Example 205, (R)-3-(4-(4-(1-((S)-1-cyclopropylbutan-2-yl)-1H-pyrazol-4-yl)pyrazolo[1,5-a]pyrazin-6-yl)-1H-pyrazol-1-yl)propane-1,2-diol] | 10 to 100 nM | 100 to 1000 nM | 10 to 100 nM | 1000 to 10000 nM | – |
| CC[C@H](CC(F)(F)F)n1cc(-c2nc(-c3cnn(C(CO)CO)c3)cn3nccc23)cn1 [Example 211, (R)-2-(4-(4-(1-(1,1,1-trifluoropentan-3-yl)-1H-pyrazol-4-yl)pyrazolo[1,5-a]pyrazin-6-yl)-1H-pyrazol-1-yl)propane-1,3-diol] | 10 to 100 nM | – | 10 to 100 nM | 1000 to 10000 nM | 100 to 1000 nM |
| CC[C@H](C1CC1)n1cc(-c2nc(-c3cnn(C(CO)CO)c3)cn3nccc23)cn1 [Example 215, (R)-2-(4-(4-(1-(1-cyclopropylpropyl)-1H-pyrazol-4-yl)pyrazolo[1,5-a]pyrazin-6-yl)-1H-pyrazol-1-yl)propane-1,3-diol] | 10 to 100 nM | 100 to 1000 nM | 10 to 100 nM | 1000 to 10000 nM | – |
